We go through 2 compounds from patent publication US7439243B2, “Piperazinyl-quinoline derivatives useful for the treatment of CNS disorders” (Glaxo Group Limited, priority 2003, dated 2008).

Structures can show the parent of a compound that is named as a salt. Where two headings read alike, the source gives them in different places. Some results are limits rather than exact numbers.

This assay has as its target human cloned 5-HT6 receptors (Homo sapiens, UniProt P50406). The experiment in a line: 5-HT6 receptor affinity (procedures outlined in WO98/27081). It counts as binding. The text has this: Compounds can be tested following the procedures outlined in WO98/27081.

Chain of human cloned 5-HT6 receptors (P50406 whole entry): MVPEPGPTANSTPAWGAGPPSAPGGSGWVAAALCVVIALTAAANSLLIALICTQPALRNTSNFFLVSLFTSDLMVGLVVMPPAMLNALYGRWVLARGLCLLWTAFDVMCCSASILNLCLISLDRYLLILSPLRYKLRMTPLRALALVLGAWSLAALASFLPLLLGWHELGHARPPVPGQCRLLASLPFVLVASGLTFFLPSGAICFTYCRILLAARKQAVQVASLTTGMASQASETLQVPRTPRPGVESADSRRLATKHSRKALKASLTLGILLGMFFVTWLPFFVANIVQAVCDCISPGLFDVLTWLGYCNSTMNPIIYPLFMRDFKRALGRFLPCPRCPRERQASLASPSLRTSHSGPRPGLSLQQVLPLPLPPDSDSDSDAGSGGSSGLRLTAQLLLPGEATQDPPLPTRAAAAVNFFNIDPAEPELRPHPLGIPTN

Regarding `O=C(c1cccc(Cl)c1)c1cnc2c(N3CCNCC3)cccc2c1` [Example E2, (3-Chlorophenyl)[8-(1-piperazinyl)-3-quinolinyl]methanone hydrochloride], for the setting “human cloned 5-HT6 receptors, read-out: pKi (converted)”, the Ki is under 0.0316 µM. Turning to `Clc1cccc(Cc2cnc3c(N4CCNCC4)cccc3c2)c1` [Example E1, 3-[(3-Chlorophenyl)methyl]-8-(1-piperazinyl)quinoline hydrochloride], the Ki is under 0.0316 µM.
